{"source": "patent EP0559845B1", "about": "“Use of compounds in preventing endotoxin shock” (priority 1991, dated 1992)", "key": {"[1]": {"tested_on": "LPS-induced GTPase activity in membranes isolated from RAW 264.7 cells", "assay": "GTPase assay: effect of compounds on LPS-stimulated GTPase activity in macrophage membranes (release of 32Pi from γ-32P-GTP)", "type": "biochemical", "excerpt": "We sought to directly evaluate the influence of LPS on possible G-protein function by examining agonist-enhanced GTPase activity, which is a hallmark of G-protein action. Moreover, because macrophages are one of the key cell types in the release of toxic mediators following an LPS challenge, we first assessed the capacity of LPS to influence GTPase activity in membranes isolated from RAW 264.7 cells, which is a highly LPS-responsive macrophage cell line. In these studies, GTPase activity was measured using a standard assay. The activity was determined using 2 µM γ-^32P-GTP in the presence of 0.1 mM ATP and 0.2 mM of the non-hydrolyzable ATP analog, AMPPNP, in order to minimize nonspecific nucleotidase activity in the membrane preparations.\nThe reaction is initiated by the addition of the γ-^32P-GTP and the mixture incubated at 30-37°C for 15 to 30 minutes. The reaction is terminated by the addition of 500µl of 5% trichloroacetic acid and 500µl of 0.1gm/ml acid-activated charcoal in 5% trichloroacetic acid. The samples are centrifuged at 14,000xg for 10 minutes, and a 550µl aliquot of the supernatant is removed for scintillation counting. The supernatant will contain the released ^32Pi. The extent of GTPase inhibition is measured by the decrease in the amount of ^32Pi released from γ-^32P-GTP. Appropriate controls include mixtures with one of the following omitted: (i) test compound, (ii) endotoxin, and (iii) ATP, ADP or AMPPNP.\nThe membranes are resuspended in 20 mM HEPES (pH 7.4), 1 mM dithiothreitol, 1 mM EDTA and 10 µg leupeptin/ml. Aliquots are stored at -70°C until assayed."}, "[2]": {"tested_on": "TNFα production by RAW264.7 macrophages", "assay": "LPS-mediated TNF production by macrophages, measured by cell viability assay on actinomycin D-sensitized L929 cells", "type": "cell-based", "conditions": "RAW264.7 cells treated with 2-MeSATP (0-5µM), LPS and ATP", "description": "Moreover, 2-MeSATP decreased LPS-mediated TNFα production by RAW264.7 macrophages. Production of TNF by the macrophage cells was measured by a \"cell viability\" assay. This is a standard assay described in Birkland, et al., Adv. Exp. Med. Biol. 256: 399-402 (1990). In brief, TNF in solution will kill actinomycin D-sensitized L929 cells, which can be measured by a loss of MTT dye reduction. The supernatent was removed from RAW264.7 cells treated with 2-MeSATP, LPS and ATP. The greater the amount of 2-MeSATP added (0-5µM), the less TNF was produced by the macrophage cells."}}, "data": [{"substance": "2-methylthio-ATP [2-MeSATP]", "values": [{"measurement": "inhibition of LPS-stimulated GTPase activity", "setting": "[1]", "result": "blocks"}, {"measurement": "stimulation (potentiation) of LPS-stimulated GTPase activity", "setting": "[1]", "result": "no stimulatory effect"}, {"measurement": "antagonism of the stimulatory effects of ATP on LPS-inducible GTPase activity", "setting": "[1]; 2-MeSATP 0-100µM", "result": "did antagonize"}, {"measurement": "relative abilities of purines to stimulate LPS-enhanced GTPase", "setting": "[1]; dose-response studies, rank order", "result": "ATP> ATPγS> ADP> AMPPNP>> β,γ methylene ATP> 2-MeSATP"}, {"measurement": "LPS-mediated TNFα production", "setting": "[2]", "result": "decreased"}, {"measurement": "LPS-mediated TNFα production", "setting": "[2]; listed as 2-methylthio-ATP", "result": "blocks"}]}]}
